Patent publication US11999718B2, “Pyrazole derivatives” (Aptabio Therapeutics Inc., priority 2021, dated 2024)

These compounds were tested on HL-60 cells differentiated into neutrophil cells (assay: ROS production induced by PMA in HL-60 cells differentiated into neutrophil cells). Details: Homo sapiens, 0.5 h; differentiated HL-60 cells, compounds 0.5 uM (0.5 mM in the source) for 30 minutes, 200 nM PMA, L-012 luminescence.
Type: cell-based
Excerpt: In order to confirm the effect of the compounds of Synthetic examples on ROS production from fibroblasts and specific substrate cells, ROS production was induced by stimulation of PMA (phorbol 12-myristate 13-acetate), TGF-β1, palmitate or high concentration-glucose, or the like, in HL-60 cells differentiated into neutrophil cells by DMSO treatment, NHLF (normal human lung fibroblast, Lonza), LX-2 (human hepatic stellate cells, Sigma), ARPE19 (human retinal pigment epithelial cell, ATCC), and KEL-FIB (Keloid fibroblast, ATCC) cells, and under this condition, the inhibitory effect of ROS production of the compounds of Synthetic Examples was observed.
HL-60 cells (human leukemia cells, ATCC) were suspended in a medium containing 1.25% DMSO (RPMI+10% FBS) and cultured under the condition of 5% CO2, 37° C. for 6 days, thereby inducing differentiation into neutrophil cells. […] Then, to each well comprising the cells and drug, 200 nM PMA was treated to induce ROS production, and such ROS production was measured by observing the luminescence level of each well using 100 μM L-012.

Structure (SMILES)	inhibition at 0.5 µM [%]
Oc1c2c(nn1-c1ccccn1)CCC(N(Cc1ccccc1)C1CC1)C2 (centres unmarked) [Compound 2, 5-(Benzylcyclopropylamino)-2-(pyridin-2-yl)-4,5,6,7-tetrahydro-2H-indazol-3-ol]	> 70
CN(Cc1ccc(C#N)cc1)C1CCc2nn(-c3ccccn3)c(O)c2C1 (centres unmarked) [Compound 3, 4-{[(3-Hydroxy-2-(pyridin-2-yl)-4,5,6,7-tetrahydro-2H-indazol-5-yl)methylamino]methyl}benzonitrile]	> 70
CN(Cc1ccc(F)cc1)C1CCc2nn(-c3ccccn3)c(O)c2C1 (centres unmarked) [Compound 4, 5-[(4-Fluorobenzyl)methylamino]-2-(pyridin-2-yl)-4,5,6,7-tetrahydro-2H-indazol-3-ol]	> 70
CN(Cc1ccccc1Cl)C1CCc2nn(-c3ccccn3)c(O)c2C1 (centres unmarked) [Compound 6, 5-[(2-Chlorobenzyl)methylamino]-2-(pyridin-2-yl)-4,5,6,7-tetrahydro-2H-indazol-3-ol]	> 70
CN(Cc1cccc(Cl)c1)C1CCc2nn(-c3ccccn3)c(O)c2C1 (centres unmarked) [Compound 7, 5-[(3-Chlorobenzyl)methylamino]-2-(pyridin-2-yl)-4,5,6,7-tetrahydro-2H-indazol-3-ol]	> 70
CN(Cc1ccc(C(F)(F)F)cc1)C1CCc2nn(-c3ccccn3)c(O)c2C1 (centres unmarked) [Compound 8, 5-[Methyl-(4-trifluoromethylbenzyl)amino]-2-pyridin-2-yl-4,5,6,7-tetrahydro-2H-indazol-3-ol]	< 30
Cc1cccc(CN(C)C2CCc3nn(-c4ccccn4)c(O)c3C2)c1 (centres unmarked) [Compound 9, 5-[Methyl-(3-methylbenzyl)amino]-2-(pyridin-2-yl)-4,5,6,7-tetrahydro-2H-indazol-3-ol]	50 to 70
CN(Cc1cccc(C(F)(F)F)c1)C1CCc2nn(-c3ccccn3)c(O)c2C1 (centres unmarked) [Compound 10, 5-[Methyl-(3-trifluoromethylbenzyl)-amino]-2-pyridin-2-yl-4,5,6,7-tetrahydro-2H-indazol-3-ol]	30 to 50
CN(Cc1ccccc1C(F)(F)F)C1CCc2nn(-c3ccccn3)c(O)c2C1 (centres unmarked) [Compound 11, 5-[Methyl-(2-trifluoromethylbenzyl)-amino]-2-pyridin-2-yl-4,5,6,7-tetrahydro-2H-indazol-3-ol]	< 30
Oc1c2c(nn1-c1ccccn1)CCC(N1CCOCC1)C2 (centres unmarked) [Compound 15, 5-Morpholino-4-yl-2-(pyridin-2-yl)-4,5,6,7-tetrahydro-2H-indazol-3-ol]	> 70
Oc1c2c(nn1-c1ccccn1)CCC(N1CCc3ccccc3C1)C2 (centres unmarked) [Compound 18, 5-(3,4-Dihydro-1H-isoquinolin-2-yl)-2-(pyridin-2-yl)-4,5,6,7-tetrahydro-2H-indazol-3-ol]	> 70
CN(Cc1ccc(Cl)cc1)C1CCc2nn(-c3ccccn3)c(O)c2C1 (centres unmarked) [Compound 19, 5-[(4-Chlorobenzyl)methylamino]-2-(pyridin-2-yl)-4,5,6,7-tetrahydro-2H-indazol-3-ol]	> 70
CCN(Cc1ccccc1)C1CCc2nn(-c3ccccn3)c(O)c2C1 (centres unmarked) [Compound 20, 5-(Benzylethylamino)-2-(pyridin-2-yl)-4,5,6,7-tetrahydro-2H-indazol-3-ol]	30 to 50
CCCN(Cc1ccccc1)C1CCc2nn(-c3ccccn3)c(O)c2C1 (centres unmarked) [Compound 21, 5-(Benzylpropylamino)-2-(pyridin-2-yl)-4,5,6,7-tetrahydro-2H-indazol-3-ol]	30 to 50
CCCCN(Cc1ccccc1)C1CCc2nn(-c3ccccn3)c(O)c2C1 (centres unmarked) [Compound 22, 5-(Benzylbutylamino)-2-(pyridin-2-yl)-4,5,6,7-tetrahydro-2H-indazol-3-ol]	< 30
Cc1ccc(CN(C)C2CCc3nn(-c4ccccn4)c(O)c3C2)cc1 (centres unmarked) [Compound 24, 5-[Methyl-(4-methylbenzyl)amino]-2-(pyridin-2-yl)-4,5,6,7-tetrahydro-2H-indazol-3-ol]	30 to 50
CN(Cc1cccc(C#N)c1)C1CCc2nn(-c3ccccn3)c(O)c2C1 (centres unmarked) [Compound 25, 3-{[(3-Hydroxy-2-(pyridin-2-yl)-4,5,6,7-tetrahydro-2H-indazol-5-yl)methylamino]methyl}benzonitrile]	30 to 50
COc1ccccc1CN(C)C1CCc2nn(-c3ccccn3)c(O)c2C1 (centres unmarked) [Compound 26, 5-[(2-Methoxybenzyl)-methylamino]-2-(pyridin-2-yl)-4,5,6,7-tetrahydro-2H-indazol-3-ol]	< 30
CN(Cc1cccc(F)c1)C1CCc2nn(-c3ccccn3)c(O)c2C1 (centres unmarked) [Compound 27, 5-[(3-Fluorobenzyl)methylamino]-2-(pyridin-2-yl)-4,5,6,7-tetrahydro-2H-indazol-3-ol]	30 to 50

Structure (SMILES)	inhibition at 0.5 µM [%]
COc1ccc(CN(C)C2CCc3nn(-c4ccccn4)c(O)c3C2)cc1 (centres unmarked) [Compound 28, 5-[(4-Methoxybenzyl)methylamino]-2-(pyridin-2-yl)-4,5,6,7-tetrahydro-2H-indazol-3-ol]	50 to 70
Cc1ccccc1CN(C)C1CCc2nn(-c3ccccn3)c(O)c2C1 (centres unmarked) [Compound 29, 5-[Methyl-(2-methylbenzyl)amino]-2-(pyridin-2-yl)-4,5,6,7-tetrahydro-2H-indazol-3-ol]	30 to 50
CN1CCN(c2cc(CN(C)C3CCc4nn(-c5ccccn5)c(O)c4C3)ncn2)CC1 (centres unmarked) [Compound 34, 5-{methyl-[6-(4-methyl-piperazin-1-yl)-pyrimidin-4-ylmethyl]-amino}-2-pyridin-2-yl-4,5,6,7-tetrahydro-2H-indazol-3-ol]	30 to 50
CN1CCN(c2cccc3nc(CN(C)C4CCc5nn(-c6ccccn6)c(O)c5C4)cn23)CC1 (centres unmarked) [Compound 37, 5-{Methyl[5-(4-methylpiperazin-1-yl)imidazo[1,2-a]pyridin-2-yl]methylamino}-2-(pyridin-2-yl)-4,5,6,7-tetrahydro-2H-indazol-3-ol]	30 to 50
CN(C)c1ccc(CN(C)C2CCc3nn(-c4ccccn4)c(O)c3C2)cc1 (centres unmarked) [Compound 70, 5-[(4-Dimethylamino)benzylmethylamino]-2-(pyridin-2-yl)-4,5,6,7-tetrahydro-2H-indazol-3-ol]	30 to 50
CN(C)c1ccccc1CN(C)C1CCc2nn(-c3ccccn3)c(O)c2C1 (centres unmarked) [Compound 71, 5-[(2-Dimethylamino)benzylmethylamino]-2-(pyridin-2-yl)-4,5,6,7-tetrahydro-2H-indazol-3-ol]	50 to 70
CN1CCN(C2CCc3nn(-c4cccc(Cl)n4)c(O)c3C2)CC1 (centres unmarked) [Compound 83, 2-(6-Chloropyridin-2-yl)-5-(4-methylpiperazin-1-yl)-4,5,6,7-tetrahydro-2H-indazol-3-ol]	> 70
Cc1cc(C(F)(F)F)cc(-n2nc3c(c2O)CC(N2CCN(C)CC2)CC3)n1 (centres unmarked) [Compound 84, 2-(6-Methyl-4-(trifluoromethyl)pyridin-2-yl)-5-(4-methylpiperazin-1-yl)-4,5,6,7-tetrahydro-2H-indazol-3-ol]	50 to 70
CN1CCN(C2CCc3nn(-c4nccc5sccc45)c(O)c3C2)CC1 (centres unmarked) [Compound 85, 5-(4-Methylpiperazin-1-yl)-2-(thieno[3,2-c]pyridin-4-yl)-4,5,6,7-tetrahydro-2H-indazol-3-ol]	50 to 70
CN1CCN(C2CCc3nn(-c4ncccc4F)c(O)c3C2)CC1 (centres unmarked) [Compound 86, 2-(3-Fluoropyridin-2-yl)-5-(4-methylpiperazin-1-yl)-4,5,6,7-tetrahydro-2H-indazol-3-ol]	30 to 50
Oc1c2c(nn1-c1ccccn1)CCC(N1CCN(Cc3ccccn3)CC1)C2 (centres unmarked) [Compound 87, 2-(Pyridin-2-yl)-5-(4-(pyridin-2-ylmethyl)piperazin-1-yl)-4,5,6,7-tetrahydro-2H-indazol-3-ol]	50 to 70
COc1ccc(CNC2CCc3nn(-c4ccccn4)c(O)c3C2)cc1 (centres unmarked) [Compound 88, 5-((4-Methoxybenzyl)amino)-2-(pyridin-2-yl)-4,5,6,7-tetrahydro-2H-indazol-3-ol]	50 to 70
CC#CC(=O)N1CCN(C2CCc3nn(-c4ccccn4)c(O)c3C2)CC1 (centres unmarked) [Compound 89]	> 70
Oc1c2c(nn1-c1ccccn1)CCC(N1CCN(Cc3ccc4ncccc4c3)CC1)C2 (centres unmarked) [Compound 90, 2-(Pyridin-2-yl)-5-(4-(quinolin-6-ylmethyl)piperazin-1-yl)-4,5,6,7-tetrahydro-2H-indazol-3-ol]	> 70
CCN1CCN(C2CCc3nn(-c4ccccn4)c(O)c3C2)CC1 (centres unmarked) [Compound 91, 5-(4-Ethylpiperazin-1-yl)-2-(pyridin-2-yl)-4,5,6,7-tetrahydro-2H-indazol-3-ol]	50 to 70
Oc1c2c(nn1-c1ccccn1)CCC(Nc1ccccc1)C2 (centres unmarked) [Compound 92, 5-(Phenylamino)-2-(pyridin-2-yl)-4,5,6,7-tetrahydro-2H-indazol-3-ol]	30 to 50
Oc1c2c(nn1-c1ccccn1)CCC(NCCc1ccccc1)C2 (centres unmarked) [Compound 93, 5-(Penethylamino)-2-(pyridin-2-yl)-4,5,6,7-tetrahydro-2H-indazol-3-ol]	30 to 50
CN1CCN(C2CCc3nn(-c4ccc(Cl)cc4)c(O)c3C2)CC1 (centres unmarked) [Compound 94, 2-(4-Chlorophenyl)-5-(4-methylpiperazin-1-yl)-4,5,6,7-tetrahydro-2H-indazol-3-ol]	> 70
CN1CCN(C2CCc3nn(-c4ccc(C(F)(F)F)cc4)c(O)c3C2)CC1 (centres unmarked) [Compound 95, 5-(4-Methylpiperazin-1-yl)-2-(4-(trifluoromethyl)phenyl)-4,5,6,7-tetrahydro-2H-indazol-3-ol]	50 to 70
